# Experimental data taken from patent publication US9963467B2, “Boronic acid derivatives and therapeutic uses thereof” (Rempex Pharmaceuticals, Inc., priority 2014, dated 2018).
# Key:
# [1] = system: KP1005 (CTX-M-14); assay: Aztreonam potentiation (MPC@4), KP1005; assay type: cell-based; conditions: BLI with aztreonam at 4 μg/mL
# [2] = system: KP1009 (CTX-M-15); assay: organism not typed; assay type: cell-based
# [3] = system: ec302 (TEM-10); assay: Aztreonam potentiation (MPC@4), ec302; assay type: cell-based; conditions: BLI with aztreonam at 4 μg/mL
# [4] = system: KP1004 (KPC-2); assay: Aztreonam potentiation (MPC@4), KP1004; assay type: cell-based; conditions: BLI with aztreonam at 4 μg/mL
# [5] = system: ECL1002; assay: Aztreonam potentiation (MPC@4), ECL1002; assay type: cell-based; conditions: BLI with aztreonam at 4 μg/mL
# [6] = system: EC1010 (CMY-6); assay: organism not typed; assay type: cell-based
# [7] = system: KP1005 (CTX-M-14); assay: Tigemonam potentiation (MPC@4), KP1005; assay type: cell-based; conditions: BLI with tigemonam at 4 μg/mL
# [8] = system: KP1009 (CTX-M-15); assay: Tigemonam potentiation (MPC@4), KP1009; assay type: cell-based; conditions: BLI with tigemonam at 4 μg/mL
# [9] = system: ec308 (SHV-5); assay: Tigemonam potentiation (MPC@4), ec308; assay type: cell-based
# [10] = system: KP1010 (SHV-12); assay: Tigemonam potentiation (MPC@4), KP1010; assay type: cell-based
# [11] = system: ec302 (TEM-10); assay: Tigemonam potentiation (MPC@4), ec302; assay type: cell-based
# [12] = system: ECL1002; assay: Tigemonam potentiation (MPC@4), ECL1002; assay type: cell-based; conditions: BLI with tigemonam at 4 μg/mL
# [13] = system: EC1010 (CMY-6); assay: Tigemonam potentiation (MPC@4), EC1010; assay type: cell-based; conditions: BLI with tigemonam at 4 μg/mL
# [14] = target: CTX-M-14 (Escherichia coli, UniProt Q9L5C7); assay: Ki, nitrocefin cleavage by purified enzyme, CTX-M-14; assay type: biochemical; conditions: nitrocefin reporter substrate; read-out: Ki (CTX-M-14, NCF)
# Method in brief: (§1)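 Steps: enzyme plus inhibitor dilutions in reaction buffer; 10 min at room temperature; add nitrocefin; read absorbance at 490 nm each 10 sec for 10 min.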
# [15] = target: SHV-12 (Klebsiella pneumoniae, UniProt P0AD64, E235K/G234S/L31Q); assay: Ki, nitrocefin cleavage by purified enzyme, SHV-12; assay type: biochemical; conditions: nitrocefin reporter substrate; read-out: Ki (SHV-12, NCF)
# Method in brief: as §1
# [16] = target: KPC-2 (Klebsiella pneumoniae, UniProt Q9F663); assay: Ki, nitrocefin cleavage by purified enzyme, KPC-2; assay type: biochemical; conditions: nitrocefin reporter substrate; read-out: Ki (KPC-2, NCF)
# Method in brief: as §1
# [17] = target: P99 (Enterobacter cloacae, UniProt P05364); assay: Ki, nitrocefin cleavage by purified enzyme, P99; assay type: biochemical; conditions: nitrocefin reporter substrate; read-out: Ki (P99, NCF)
# Method in brief: as §1
# [18] = target: Pa AmpC (Pseudomonas aeruginosa, UniProt P24735); assay: Ki, nitrocefin cleavage by purified enzyme, Pa AmpC; assay type: biochemical; conditions: nitrocefin reporter substrate; read-out: Ki (Pa AmpC, NCF)
# Method in brief: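 With nitrocefin serving as reporter, cleavage by purified enzyme was tracked at 490 nm every 10 sec for 10 min, following 10 min preincubation at room temperature with inhibitor at various concentrations, to obtain Ki.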
# [19] = target: OXA-48 (Klebsiella pneumoniae, UniProt Q6XEC0); assay: Ki, nitrocefin cleavage by purified enzyme, OXA-48; assay type: biochemical; conditions: nitrocefin reporter substrate; read-out: Ki (OXA-48, NCF)
# Method in brief: as §1
# [20] = Monomer content of pH adjusted aqueous solutions (LC-UV); assay type: physicochemical; conditions: 1 mg/mL aqueous salt solution, pH adjusted to 7.6 to 8, LC-UV
# Method in brief: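 Aqueous solutions at 1.00, 10.0 or 100 mg/mL (active fraction) brought to pH 7.6–8 with acid or base, compound fully dissolved. Injected within half an hour of preparation onto C18 reversed-phase LC (0.1% TFA water / 0.085% TFA methanol gradient); UV detection at 220, 254 and 300 nm.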
# [21] = system: KP1004 (KPC-2); assay: Biapenem potentiation (MPC@1), KP1004; conditions: BLI with biapenem at 1 μg/mL
# [22] = system: KP1086 (OXA-48); assay: Biapenem potentiation (MPC@1), KP1086; conditions: BLI with biapenem at 1 μg/mL
# CTX-M-14, sequence (Q9L5C7 29-291): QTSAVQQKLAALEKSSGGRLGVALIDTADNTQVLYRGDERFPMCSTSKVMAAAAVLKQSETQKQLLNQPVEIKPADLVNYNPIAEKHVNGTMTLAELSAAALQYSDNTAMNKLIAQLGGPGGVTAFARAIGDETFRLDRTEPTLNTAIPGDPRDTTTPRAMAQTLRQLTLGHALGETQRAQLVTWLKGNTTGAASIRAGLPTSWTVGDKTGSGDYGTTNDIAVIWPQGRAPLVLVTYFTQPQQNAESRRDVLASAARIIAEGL
# OXA-48, sequence (Q6XEC0 23-265, looked up, species assumed): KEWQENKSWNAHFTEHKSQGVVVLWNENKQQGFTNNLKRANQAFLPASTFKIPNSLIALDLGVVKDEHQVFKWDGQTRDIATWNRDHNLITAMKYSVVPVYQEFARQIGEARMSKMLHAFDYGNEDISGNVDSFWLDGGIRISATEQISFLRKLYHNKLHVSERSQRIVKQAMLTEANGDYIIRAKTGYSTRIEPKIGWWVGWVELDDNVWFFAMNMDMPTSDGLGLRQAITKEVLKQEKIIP
# Pa AmpC, sequence (P24735 27-397): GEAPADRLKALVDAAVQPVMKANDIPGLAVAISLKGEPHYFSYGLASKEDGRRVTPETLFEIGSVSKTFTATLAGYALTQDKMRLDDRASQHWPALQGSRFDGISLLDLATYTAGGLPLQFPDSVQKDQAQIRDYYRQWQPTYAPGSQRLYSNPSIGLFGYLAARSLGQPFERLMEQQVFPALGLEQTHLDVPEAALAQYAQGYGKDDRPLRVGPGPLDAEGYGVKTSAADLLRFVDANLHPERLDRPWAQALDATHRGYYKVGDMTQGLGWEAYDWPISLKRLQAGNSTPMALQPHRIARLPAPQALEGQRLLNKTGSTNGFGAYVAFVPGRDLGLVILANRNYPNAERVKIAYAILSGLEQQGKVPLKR
# P99, sequence (P05364 21-381): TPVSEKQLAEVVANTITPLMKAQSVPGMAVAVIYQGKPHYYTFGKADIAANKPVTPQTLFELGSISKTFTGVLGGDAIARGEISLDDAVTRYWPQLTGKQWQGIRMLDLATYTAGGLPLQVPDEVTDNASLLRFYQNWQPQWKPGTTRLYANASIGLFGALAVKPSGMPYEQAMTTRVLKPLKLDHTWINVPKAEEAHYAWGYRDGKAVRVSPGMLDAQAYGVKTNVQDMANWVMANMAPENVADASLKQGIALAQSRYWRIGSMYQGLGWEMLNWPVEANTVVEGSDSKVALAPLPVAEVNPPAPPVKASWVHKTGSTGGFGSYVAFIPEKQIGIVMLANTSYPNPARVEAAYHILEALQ
# KPC-2, sequence (Q9F663 25-293, looked up, species assumed): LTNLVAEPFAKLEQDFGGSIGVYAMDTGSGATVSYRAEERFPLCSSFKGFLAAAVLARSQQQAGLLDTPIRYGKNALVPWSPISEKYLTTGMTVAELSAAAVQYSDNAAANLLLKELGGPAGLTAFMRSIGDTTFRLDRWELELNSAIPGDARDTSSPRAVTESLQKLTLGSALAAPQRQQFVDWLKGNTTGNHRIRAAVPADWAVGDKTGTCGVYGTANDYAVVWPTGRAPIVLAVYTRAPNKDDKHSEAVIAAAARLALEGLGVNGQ
# SHV-12, sequence (P0AD64 22-286 L31Q/G234S/E235K): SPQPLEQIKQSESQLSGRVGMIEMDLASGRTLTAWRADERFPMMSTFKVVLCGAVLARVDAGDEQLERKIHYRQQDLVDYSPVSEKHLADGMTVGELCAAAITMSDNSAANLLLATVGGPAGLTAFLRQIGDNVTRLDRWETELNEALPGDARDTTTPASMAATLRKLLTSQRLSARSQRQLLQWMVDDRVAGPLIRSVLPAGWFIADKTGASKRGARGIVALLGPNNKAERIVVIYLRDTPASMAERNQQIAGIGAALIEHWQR
Structure (SMILES),AZT MPC4 CTX-M-14 KP1005 [1],AZT MPC4 CTX-M-15 KP1009 [2],AZT MPC4 TEM-10 ec302 [3],AZT MPC4 KPC-2 KP1004 [4],AZT MPC4 ECL1002 [5],AZT MPC4 CMY-6 EC1010 [6],TIG MPC4 CTX-M-14 KP1005 [7],TIG MPC4 CTX-M-15 KP1009 [8],TIG MPC4 SHV-5 ec308 [9],TIG MPC4 SHV-12 KP1010 [10],TIG MPC4 TEM-10 ec302 [11],TIG MPC4 ECL1002 [12],TIG MPC4 CMY-6 EC1010 [13],Ki [14],Ki [15],Ki [16],Ki [17],Ki [18],Ki [19],% Monomer in 1 mg/mL salt solution [20],other results
"CSCC(=O)N[C@H]1Cc2ccc(Sc3nnc(N)s3)c(C(=O)O)c2OB1O [Compound 21, (R)-7-(5-amino-1,3,4-thiadiazol-2-ylthio)-2-hydroxy-3-(2-(methylthio)acetamido)-3,4-dihydro-2H-benzo[e][1,2]oxaborinine-8-carboxylic acid]",Y (MIC of 1 μg/mL to 10 μg/mL),Y (key: X: MIC of less than 1 ng/mL; Y: MIC of 1 μg/mL to 10 μg/mL; Z: MIC of greater than 10 μg/mL),Y (MIC of 1 μg/mL to 10 μg/mL),Y (MIC of 1 μg/mL to 10 μg/mL),Y (MIC of 1 μg/mL to 10 μg/mL),Y (key: X: MIC of less than 1 ng/mL; Y: MIC of 1 μg/mL to 10 μg/mL; Z: MIC of greater than 10 μg/mL),Y (MIC of 1 μg/mL to 10 μg/mL),Y (MIC of 1 μg/mL to 10 μg/mL),X (key: X: MIC of less than 1 μg/mL; Y: MIC of 1 μg/mL to 10 μg/mL; Z: MIC of greater than 10 μg/mL),X (key: X: MIC of less than 1 μg/mL; Y: MIC of 1 μg/mL to 10 μg/mL; Z: MIC of greater than 10 μg/mL),Y (key: X: MIC of less than 1 ng/mL; Y: MIC of 1 μg/mL to 10 μg/mL; Z: MIC of greater than 10 μg/mL),Y (MIC of 1 μg/mL to 10 μg/mL),Y (MIC of 1 μg/mL to 10 μg/mL),< 1 nM,< 1 nM,> 10 nM,> 10 nM,> 10 nM,< 1 nM,98.1%,BPM MPC1 KP1004 KPC-2 [21]: Y (MIC of 1 μg/mL to 10 μg/mL); BPM MPC1 OXA-48 KP1086 [22]: Z (MIC of greater than 10 μg/mL)
"CSCC(=O)N[C@H]1Cc2ccc(SCC3CCNCC3)c(C(=O)O)c2OB1O [Compound 24, (R)-2-hydroxy-3-(2-(methylthio)acetamido)-7-(piperidin-4-ylmethylthio)-3,4-dihydro-2H-benzo[e][1,2]oxaborinine-8-carboxylic acid]",Y (MIC of 1 μg/mL to 10 μg/mL),Y (key: X: MIC of less than 1 ng/mL; Y: MIC of 1 μg/mL to 10 μg/mL; Z: MIC of greater than 10 μg/mL),Y (MIC of 1 μg/mL to 10 μg/mL),Y (MIC of 1 μg/mL to 10 μg/mL),Y (MIC of 1 μg/mL to 10 μg/mL),Y (key: X: MIC of less than 1 ng/mL; Y: MIC of 1 μg/mL to 10 μg/mL; Z: MIC of greater than 10 μg/mL),Y (MIC of 1 μg/mL to 10 μg/mL),Y (MIC of 1 μg/mL to 10 μg/mL),Y (key: X: MIC of less than 1 ng/mL; Y: MIC of 1 μg/mL to 10 μg/mL; Z: MIC of greater than 10 μg/mL),X (key: X: MIC of less than 1 μg/mL; Y: MIC of 1 μg/mL to 10 μg/mL; Z: MIC of greater than 10 μg/mL),Z (key: X: MIC of less than 1 ng/mL; Y: MIC of 1 μg/mL to 10 μg/mL; Z: MIC of greater than 10 μg/mL),Y (MIC of 1 μg/mL to 10 μg/mL),Y (MIC of 1 μg/mL to 10 μg/mL),< 1 nM,1 to 10 nM,> 10 nM,> 10 nM,> 10 nM,< 1 nM,98.3%,BPM MPC1 KP1004 KPC-2 [21]: X (MIC of less than 1 μg/mL); BPM MPC1 OXA-48 KP1086 [22]: Z (MIC of greater than 10 μg/mL)
